Reference: patent US11427548B2 (Arvinas Operations, Inc., priority 2015, dated 2022)
Like-named read-outs stand apart in the source and are kept apart here.

Biological target: T1, Androgen Receptor (Homo sapiens, UniProt P10275)
T1 construct: endogenous in cells; host or cells: VCaP cells
T1 sequence (P10275 1-920): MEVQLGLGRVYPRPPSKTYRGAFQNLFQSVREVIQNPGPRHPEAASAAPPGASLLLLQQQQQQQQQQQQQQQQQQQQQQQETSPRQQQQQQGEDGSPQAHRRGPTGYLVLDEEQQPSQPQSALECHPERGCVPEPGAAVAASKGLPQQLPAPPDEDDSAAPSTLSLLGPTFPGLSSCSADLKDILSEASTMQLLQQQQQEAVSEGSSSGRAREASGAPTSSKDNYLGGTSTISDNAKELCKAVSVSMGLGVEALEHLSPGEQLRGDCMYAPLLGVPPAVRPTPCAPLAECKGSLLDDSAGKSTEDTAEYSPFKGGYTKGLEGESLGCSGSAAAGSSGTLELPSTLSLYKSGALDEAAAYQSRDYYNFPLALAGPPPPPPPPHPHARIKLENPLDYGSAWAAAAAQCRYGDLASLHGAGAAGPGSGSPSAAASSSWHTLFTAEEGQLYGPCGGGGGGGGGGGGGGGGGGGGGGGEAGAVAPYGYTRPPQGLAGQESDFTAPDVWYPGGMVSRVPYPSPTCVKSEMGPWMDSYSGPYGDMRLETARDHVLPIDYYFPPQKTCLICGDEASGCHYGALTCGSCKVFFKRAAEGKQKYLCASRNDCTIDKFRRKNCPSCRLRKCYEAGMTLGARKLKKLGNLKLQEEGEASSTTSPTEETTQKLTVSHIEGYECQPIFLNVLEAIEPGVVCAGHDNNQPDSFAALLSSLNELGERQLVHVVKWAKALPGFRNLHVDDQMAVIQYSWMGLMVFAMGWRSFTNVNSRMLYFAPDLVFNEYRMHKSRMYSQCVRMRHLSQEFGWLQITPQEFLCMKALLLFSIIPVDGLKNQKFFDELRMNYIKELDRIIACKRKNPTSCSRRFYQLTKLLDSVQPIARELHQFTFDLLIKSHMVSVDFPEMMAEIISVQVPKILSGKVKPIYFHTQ
Experiment: Androgen Receptor ELISA assay (PathScan AR ELISA) in VCaP cells: AR degradation, Dmax and DC50
Type: cell-based
Summary of the method: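 VCaP cells, 30,000/well, grown ≥3 days in phenol red-free RPMI with 5% charcoal-stripped FBS; compound added in 0.1% DMSO with 0.1 nM R1881, 7 half-log doses, 24 h. Lysate AR quantified by PathScan sandwich ELISA, HRP/TMB read at 450 nm, giving DC50 and Dmax.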

[1] = read-out: VCaP DC50; concentration that caused 50% Androgen Receptor degradation, VCaP cells (Table 32)

Row | SMILES | Dmax (VCaP, read-out: VCaP Dmax (%)) | DC50 [1] | Dmax (VCaP, highest percentage of Androgen Receptor degradation observed, VCaP cells (Table 32); read-out: VCaP Dmax (%)) | DC50 (concentration that caused 50% Androgen Receptor degradation, VCaP cells (Table 32); read-out: VCaP DC50)
1 | Cn1cncc1-c1ccc(CNC(=O)[C@@H]2C[C@@H](O)CN2C(=O)[C@@H](NC(=O)COCCCCOc2ccc(-c3ccc(N4C(=S)N(c5ccc(C#N)c(C(F)(F)F)c5)C(=O)C4(C)C)cc3)cc2)C(C)(C)C)cc1 [Example 104, (2S,4R)-1-[(2S)-2-(2-{4-[4-(4-{3-[4-cyano-3-(trifluoromethyl)phenyl]-5,5-dimethyl-4-oxo-2-sulfanylideneimidazolidin-1-yl}phenyl)phenoxy]butoxy}acetamido)-3,3-dimethylbutanoyl]-4-hydroxy-N-{[4-(1-methyl-1H-imidazol-5-yl)phenyl]methyl}pyrrolidine-2-carboxamide] | > 71% | < 50 nM | – | –
2 | CC(C)(C)[C@H](NC(=O)COCCCCOc1ccc(-c2ccc(N3C(=S)N(c4ccc(C#N)c(C(F)(F)F)c4)C(=O)C3(C)C)cc2)cc1)C(=O)N1C[C@H](O)C[C@H]1C(=O)NCc1ccc(-c2ocnc2Cl)cc1 [Example 105, (2S,4R)-N-{[4-(4-chloro-1,3-oxazol-5-yl)phenyl]methyl}-1-[(2S)-2-(2-{4-[4-(4-{3-[4-cyano-3-(trifluoromethyl)phenyl]-5,5-dimethyl-4-oxo-2-sulfanylideneimidazolidin-1-yl}phenyl)phenoxy]butoxy}acetamido)-3,3-dimethylbutanoyl]-4-hydroxypyrrolidine-2-carboxamide] | 51 to 70% | 51 to 500 nM | – | –
3 | CC(C)(C)[C@H](NC(=O)COCCCCOc1ccc(-c2ccc(N3C(=S)N(c4ccc(C#N)c(Cl)c4)C(=O)C3(C)C)c(F)c2)cc1)C(=O)N1C[C@H](O)C[C@H]1C(=O)NCc1ccc(-c2cnco2)cc1 [Example 106, (2S,4R)-1-[(2S)-2-{2-[4-(4-{4-[3-(3-chloro-4-cyanophenyl)-5,5-dimethyl-4-oxo-2-sulfanylideneimidazolidin-1-yl]-3-fluorophenyl}phen-oxy)butoxy]acetamido}-3,3-dimethylbutanoyl]-4-hydroxy-N-{[4-(1,3-oxazol-5-yl)phenyl]methyl}pyrrolidine-2-carboxamide] | > 71% | < 50 nM | – | –
4 | Cc1ncsc1-c1ccc(CNC(=O)[C@@H]2C[C@@H](O)CN2C(=O)[C@@H](NC(=O)COCCCCOc2ccc(-c3ccc(N4C(=S)N(c5ccc(C#N)c(Cl)c5)C(=O)C4(C)C)c(F)c3)cc2)C(C)(C)C)cc1 [Example 107, (2S,4R)-1-[(2S)-2-{2-[4-(4-{4-[3-(3-chloro-4-cyanophenyl)-5,5-dimethyl-4-oxo-2-sulfanylideneimidazolidin-1-yl]-3-fluorophenyl}phen-oxy)butoxy]acetamido}-3,3-dimethylbutanoyl]-4-hydroxy-N-{[4-(4-methyl-1,3-thiazol-5-yl)phenyl]methyl}pyrrolidine-2-carboxamide] | > 71% | < 50 nM | – | –
5 | CC(C)(C)[C@H](NC(=O)COCCCCOc1ccc(-c2ccc(N3C(=S)N(c4ccc(C#N)c(Cl)c4)C(=O)C3(C)C)c(F)c2)cc1)C(=O)N1C[C@H](O)C[C@H]1C(=O)NCc1ccc(-c2cncs2)cc1 [Example 108, (2S,4R)-1-[(2S)-2-{2-[4-(4-{4-[3-(3-chloro-4-cyanophenyl)-5,5-dimethyl-4-oxo-2-sulfanylideneimidazolidin-1-yl]-3-fluorophenyl}phen-oxy)butoxy]acetamido}-3,3-dimethylbutanoyl]-4-hydroxy-N-{[4-(1,3-thiazol-5-yl)phenyl]methyl}pyrrolidine-2-carboxamide] | > 71% | < 50 nM | – | –
6 | CC(C)(C)[C@H](NC(=O)COCCCCOc1ccc(-c2ccc(N3C(=S)N(c4ccc(C#N)c(Cl)c4)C(=O)C3(C)C)cc2F)cc1)C(=O)N1C[C@H](O)C[C@H]1C(=O)NCc1ccc(-c2cnco2)cc1 [Example 109, (2S,4R)-1-[(2S)-2-{2-[4-(4-{4-[3-(3-chloro-4-cyanophenyl)-5,5-dimethyl-4-oxo-2-sulfanylideneimidazolidin-1-yl]-2-fluorophenyl}phen-oxy)butoxy]acetamido}-3,3-dimethylbutanoyl]-4-hydroxy-N-{[4-(1,3-oxazol-5-yl)phenyl]methyl}pyrrolidine-2-carboxamide] | > 71% | < 50 nM | – | –
7 | Cc1ncoc1-c1ccc(CNC(=O)[C@@H]2C[C@@H](O)CN2C(=O)[C@@H](NC(=O)COCCCCOc2ccc(-c3ccc(N4C(=S)N(c5ccc(C#N)c(Cl)c5)C(=O)C4(C)C)cc3)cc2)C(C)(C)C)cc1 [Example 110, (2S,4R)-1-[(2S)-2-{2-[4-(4-{4-[3-(3-chloro-4-cyanophenyl)-5,5-dimethyl-4-oxo-2-sulfanylideneimidazolidin-1-yl]phenyl}phenoxy)butoxy]acetamido}-3,3-dimethylbutanoyl]-4-hydroxy-N-{[4-(4-methyl-1,3-oxazol-5-yl)phenyl]methyl}pyrrolidine-2-carboxamide] | > 71% | < 50 nM | – | –
8 | CC(C)(C)[C@H](NC(=O)COCCCCOc1ccc(-c2ccc(N3C(=S)N(c4ccc(C#N)c(Cl)c4)C(=O)C3(C)C)cc2)cc1)C(=O)N1C[C@H](O)C[C@H]1C(=O)NCc1ccc(-c2cncs2)cc1 [Example 111, (2S,4R)-1-[(2S)-2-{2-[4-(4-{4-[3-(3-chloro-4-cyanophenyl)-5,5-dimethyl-4-oxo-2-sulfanylideneimidazolidin-1-yl]phenyl}phenoxy)butoxy]acetamido}-3,3-dimethylbutanoyl]-4-hydroxy-N-{[4-(1,3-thiazol-5-yl)phenyl]methyl}pyrrolidine-2-carboxamide] | > 71% | < 50 nM | – | –
9 | Cc1ncsc1-c1ccc(CNC(=O)[C@@H]2C[C@@H](O)CN2C(=O)[C@@H](NC(=O)COCCCCOc2ccc(-c3ccc(N4C(=S)N(c5ccc(C#N)c(Cl)c5)C(=O)C4(C)C)cc3)cc2)C(C)(C)C)cc1 [Example 112, (2S,4R)-1-[(2S)-2-{2-[4-(4-{4-[3-(3-chloro-4-cyanophenyl)-5,5-dimethyl-4-oxo-2-sulfanylideneimidazolidin-1-yl]phenyl}phen-oxy)butoxy]acetamido}-3,3-dimethylbutanoyl]-4-hydroxy-N-{[4-(4-methyl-1,3-thiazol-5-yl)phenyl]methyl}pyrrolidine-2-carboxamide] | > 71% | < 50 nM | – | –
10 | Cc1ncsc1-c1ccc(CNC(=O)[C@@H]2C[C@@H](O)CN2C(=O)[C@@H](NC(=O)COc2cccc(Oc3ccc(-c4ccc(N5C(=S)N(c6ccc(C#N)c(C(F)(F)F)c6)C(=O)C5(C)C)cc4)cc3)c2)C(C)(C)C)cc1 [Example 114, (2S,4R)-1-[(2S)-2-(2-{3-[4-(4-{3-[4-cyano-3-(trifluoromethyl)phenyl]-5,5-dimethyl-4-oxo-2-sulfanylideneimidazolidin-1-yl}phenyl)phen-oxy]phenoxy}acetamido)-3,3-dimethylbutanoyl]-4-hydroxy-N-{[4-(4-methyl-1,3-thiazol-5-yl)phenyl]methyl}pyrrolidine-2-carboxamide] | 51 to 70% | < 50 nM | – | –
11 | COc1cc(N2C(=O)C(C)(C)N(c3ccc(-c4ccc(OCCCCOCC(=O)N[C@H](C(=O)N5C[C@H](O)C[C@H]5C(=O)NCc5ccc(-c6ocnc6C)cc5)C(C)(C)C)cc4)cc3)C2=S)ccc1C#N [Example 115, (2S,4R)-1-[(2S)-2-{2-[4-(4-{4-[3-(4-cyano-3-methoxyphenyl)-5,5-dimethyl-4-oxo-2-sulfanylideneimidazolidin-1-yl]phenyl}phenoxy)butoxy]acetamido}-3,3-dimethylbutanoyl]-4-hydroxy-N-{[4-(4-methyl-1,3-oxazol-5-yl)phenyl]methyl}pyrrolidine-2-carboxamide] | – | – | > 71% | < 50 nM
12 | Cc1ncoc1-c1ccc(CNC(=O)[C@@H]2C[C@@H](O)CN2C(=O)[C@@H](NC(=O)COCCCCOc2ccc(-c3ccc(N4C(=S)N(c5ccc(C#N)c(C(F)(F)F)c5)C(=O)C4(C)C)c(F)c3)cc2)C(C)(C)C)cc1 [Example 116, (2S,4R)-1-[(2S)-2-(2-{4-[4-(4-{3-[4-cyano-3-(trifluoromethyl)phenyl]-5,5-dimethyl-4-oxo-2-sulfanylideneimidazolidin-1-yl}-3-fluorophenyl)phen-oxy]butoxy}acetamido)-3,3-dimethylbutanoyl]-4-hydroxy-N-{[4-(4-methyl-1,3-oxazol-5-yl)phenyl]methyl}pyrrolidine-2-carboxamide] | > 71% | < 50 nM | – | –
